In patent US20020006900A1, “Colon cancer KH-1 and N3 antigens” (priority 1997, published 2002):

Key:
[1] = tested on: Monoclonal Antibody BR 96 (Le^y related); experiment: Dot-blot immune stain of carbohydrates with monoclonal antibody BR 96; format: binding; conditions: for Binding with BR 96 (Le^y related) by dot-blot: 0.5 μg antigen spotted, BR 96 diluted 1:500
Description: 0.5 μg KH-1 ceramide and other Ley antigen and unrelated antigens were spotted on nitrocellulose strips. Dot blot Immune staining was performed monoclonal antibody BR 96 after blocked with 6% bovine serum albumin in PBS for 1 h and incubated with antibody BR 96 (diluted 1:500 in PBS) overnight at room temperature. The strips were washed with PBS containing 0.05% Tween 20 and incubated with anti-mouse IgG antibody conjugated with horseradish peroxidase at 1:200 dilution for 3 h at room temperature. Then the strips were washed with PBS-0.05% Tween 20 and developed with 4-chloro-1-naphtol-H2O2.

[2] = tested on: Monoclonal Antibody F12 (FucosylGM1); experiment: Dot-blot immune stain of carbohydrates with monoclonal antibody F12; format: binding; conditions: 0.5 μg antigen spotted

| Binding with BR 96 (Le^y related) by dot-blot [1] | Binding with F12 (FucosylGM1) by dot-blot [2] | Substance | Reaction with BR 96 antibody by dot-blot ([1]; compared with other Le^y related antigens) |
| --- | --- | --- | --- |
| negative | negative | Globo H ceramide [reference compound] |  |
| very strong | negative | KH-1 antigen [KH-1 ceramide] | reacted very strongly |
